In one experiment the test system is K562-GRE reporter gene. The experiment in a line: K562-GRE reporter gene activity. Type of experiment: cell-based. Particulars: 24 h, read-out: K562-GRE Reporter EC50. The procedure:
To generate the parental K562-GRE cell line, K562 cells were seeded at 5×10^5 cells/well onto a 6-well plate (brand: Costar, Cat. No: 3516) containing 2 mL of complete medium (RPM1640, 10% FBS, penicillin-streptomycin) and cultured at 37° C. with 5% CO2 for 24 h. The next day, 3 μg of pNL2.2[NLucP/MMTV/Hygro-NANO] (Promega) and 3 μL of PLUS reagent (brand: Invitrogen, Cat. No: 11514-015) were diluted in 150 μL of Opti-MEM (brand: Gibco, Cat. No: 11058021) and incubated at room temperature for 5 min. The pNL2.2[NLucP/MMTV/Hygro-NANO] vector contains MMTV LTR (mouse mammary tumor virus long terminal repeat), which drives transcription of the luciferase reporter gene NanoLuc in response to activation of several nuclear receptors (e.g. glucocorticoid receptor and androgen receptor). After incubation, the diluted DNA solution was mixed with Lipofectamine LTX solution (brand: Invitrogen, Cat. No: 15338-100) (6 μL of Lipofectamine LTX+144 μL of Opti-MEM) in a 1:1 ratio, pre-incubated, and incubated at room temperature for 15 min to form a DNA-Lipofectamine LTX complex. After incubation, 300 μL of the DNA-Lipofectamine complex was added directly to the cell wells. The K562 cells were transfected at 37° C. with 5% CO2 for 24 h. After transfection, the cells were washed with 3 mL of PBS and selectively grown for two weeks with complete growth medium containing 125 μg/mL hygromycin B (brand: Invitrogen, Cat. No: 10687010). “K562-GRE (pNL2.2[NLucP/MMTV/Hygro-NANO])” cells were generated.
After mixing, the cells were cultured in an incubator at 37° C. for 24 h. After 24 h of incubation, an equal volume of 100 μL of Nano-Glo luciferase assay system (brand: Promega, Cat. No: N1120) was added to the cells, the mixture was reacted in a shaker at […] for 10 min, and the chemiluminescence values were detected using the PHERAstar instrument. The antibody binding curves were plotted using the logarithmic value of the antibody concentration as the abscissa and the corresponding chemiluminescence reading as the ordinate, and the EC50 value was calculated by four-parameter fitting (GraphPad Prism9).
Background: Reporter assays use an easily measured gene product as a stand-in for the process of interest.

Experiment [1] concerns the target Glucocorticoid Receptor GR (Homo sapiens (Human), UniProt P04150). The experiment in a line: Binding activity to glucocorticoid receptor GR (Polarscreen fluorescence polarization kit). As to conditions: GR full length, 2 h. As for the experimental part:
The binding activity of the compound to GR was determined using the Polarscreen Glucocorticoid Receptor Assay Kit, Red (brand: Thermo, Cat. No: A15898). […] The highest concentration was 100 μM, 8 concentrations in total. […] With the log value of the final concentration of the compound as the X axis and the mP value as the Y axis, data was input into the processing software Graphpad Prism 9, and the EC50 value was calculated by four-parameter fitting
Background: Polarisation of emitted light reports the rotation of a fluorescent probe.

The next experiment relates to CHS mouse model. The experiment in a line: Efficacy test in CHS mouse model (FITC sensitization, right ear thickness). As to conditions: 3 μg/mouse. The class given is in vivo, C57BL/6N mice. The procedure: Construction of CHS mouse model: 6- to 8-week-old female C57BL/6N mice (Beijing Vital River Laboratory Animal Technology Co., Ltd.) were selected, and all mice were shaved off abdominal hair using a small animal hair clipper. 400 μL of the sensitizer was pipetted with a micropipette and applied evenly to the abdomen of the mice for epidermal sensitization. After application, the mice were held for 3-5 s and the solvent was allowed to evaporate from the skin as clean as possible. The specific preparation method for the sensitizer was: 0.5 g of FITC (fluorescein isothiocyanate; sigma-Aldrich) powder was weighed and fully dissolved in a solvent of 50 mL of acetone (SinoPharm reagent) and 50 mL of DBP (dibutyl phthalate; sigma-Aldrich) in equal proportion to give the sensitizer with the FITC content of 0.5%. On the 6th day after sensitization, the thickness of the right ear of the mice was measured with a dial thickness gauge as a baseline value, then a freshly prepared sensitizer was pipetted with a micropipette and applied evenly inside and outside of the right ear of the mice respectively for epidermal stimulation, and 10 μL of the sensitizer was applied on each side. 24 h after stimulation, the thickness of the right ear of the mice was measured again with a dial thickness gauge to obtain the thickness change of the right ear of the mice, A thickness of right ear=(thickness of right ear 24 h after stimulation)−(baseline value of thickness of right ear).
Therapeutic regimen for CHS model mouse: mice were divided into a blank group, a negative control group, a positive control group, and an experimental group. […] The drug was administered by one-time intraperitoneal injection 1 h before the right ear epidermal stimulation.

Glucocorticoid Receptor GR, sequence (P04150 whole entry): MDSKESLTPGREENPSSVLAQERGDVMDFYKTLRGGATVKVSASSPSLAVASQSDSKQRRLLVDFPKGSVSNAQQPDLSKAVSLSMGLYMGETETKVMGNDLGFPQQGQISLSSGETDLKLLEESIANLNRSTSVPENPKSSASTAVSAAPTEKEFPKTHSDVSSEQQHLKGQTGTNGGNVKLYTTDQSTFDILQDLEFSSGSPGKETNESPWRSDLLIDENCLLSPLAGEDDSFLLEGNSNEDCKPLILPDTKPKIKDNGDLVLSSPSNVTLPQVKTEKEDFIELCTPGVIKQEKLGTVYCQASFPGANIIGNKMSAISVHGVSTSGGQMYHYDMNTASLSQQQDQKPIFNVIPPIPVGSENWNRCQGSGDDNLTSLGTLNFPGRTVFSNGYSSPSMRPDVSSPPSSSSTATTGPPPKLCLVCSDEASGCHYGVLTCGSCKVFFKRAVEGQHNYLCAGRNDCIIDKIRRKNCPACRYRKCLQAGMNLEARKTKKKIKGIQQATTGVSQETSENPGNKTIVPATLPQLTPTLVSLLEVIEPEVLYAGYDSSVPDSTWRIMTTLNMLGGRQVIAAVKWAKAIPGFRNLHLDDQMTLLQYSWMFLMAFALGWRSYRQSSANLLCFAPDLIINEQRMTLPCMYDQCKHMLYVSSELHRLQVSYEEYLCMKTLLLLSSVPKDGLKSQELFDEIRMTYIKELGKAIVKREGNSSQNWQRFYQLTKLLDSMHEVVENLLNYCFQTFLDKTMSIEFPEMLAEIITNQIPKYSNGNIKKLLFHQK

On to `C[C@]12C=CC(=O)C=C1CC[C@@H]1[C@@H]2[C@@H](O)C[C@@]2(C)[C@H]1C[C@H]1O[C@@H](c3ccc(Cc4ccc(N)c5c4CCO5)cc3)O[C@]12C(=O)CO` [Compound 001, (6aR,6bS,7S,8aS,8bS,10R,11aR,12aS,12bS)-10-(4-((7-amino-2,3-dihydrobenzofuran-4-yl)methyl)phenyl)-7-hydroxy-8b-(2-hydroxyacetyl)-6a,8a-dimethyl-6a,6b,7,8,8a,8b,11a,12,12a,12b-decahydro-1H-naphtho[2′,1′:4,5]indeno[1,2-d][1,3]dioxolan-4(2H)-one], for which the EC50 (commonly the concentration that produces a half-maximal response) stood at 3.5 nM with K562-GRE reporter gene and 13 nM in experiment [1]. In addition, in the experiment with CHS mouse model (one-time intraperitoneal injection 1 h before right ear stimulation, measured 24 h after stimulation), the “thickness of the right ear in CHS mice compared to the negative control group” value is “significant decrease”. Further, the “efficacy compared with positive reference compound a at the same dose” value with CHS mouse model (one-time intraperitoneal injection, CHS mice, right ear thickness) is “superior in efficacy to the positive reference compound a”.

For the origin of these results see patent publication US20240307415A1, “STEROID COMPOUND, AND PHARMACEUTICAL COMPOSITION THEREOF AND USE THEREOF” (JIANGSU SIMCERE PHARMACEUTICAL CO., LTD., priority 2021, published 2024).
